Data: PMC12145446, “Development of an AI model for DILI-level prediction using liver organoid brightfield images” (Communications Biology, 2025)
Several values for one entry are separate records, joined by “and”; a condition that tells them apart may be missing. Identical values can stand only once.

Legend:
[1] = cited from earlier work; for Label section / Severity class: DILIrank; for Label section: FDA drug label section; for DILIrank: FDA DILIrank category based on clinical data
HepG2 spheroids [2] = test: ALB secretion (Human Albumin ELISA) in the DILI toxicity test on HepG2 spheroids; format: cell-based; conditions: 10*Cmax, end of Day 3 (72 h), individual replicates n = 3, unit from Fig. S3 legend
Procedure: (§1) The HepG2 cells were donated by Avatarget Co., Ltd (Suzhou, China). The HepG2 cells were cultured in DMEM (Gibco, 10567014) containing 10% fetal bovine serum (GIBCO, A3161001C), and 1×penicillin/streptomycin (Gibco, 15140148). HepG2 cells (70–80% cell confluency) were washed twice in sterile PBS and then dissociated with 1 mL 0.25% EDTA-Trypsin. Using 3×volume of the complete medium neutralized with reagent above, count cells and ensure 10,000 cells/well. The desired volume of cell suspension was inoculated into the 200 μL/well of ultra-low attachment microplate (Corning, 7007). The plate was centrifuged at 1500 rpm for 10 min and then incubated in an incubator at 37 °C in 5% CO2 for 4 days. The medium is changed every other day at a 1:1 ratio.
(§2) The peak serum concentration (Cmax) can intuitively reflect the actual presence level of a drug in the body’s circulatory system. Therefore, we used 1*Cmax as a reference for the drug dosage to better approximate the in vivo conditions. On this basis, we selected 10*Cmax as the reference concentration, taking into account the coefficient of variation in toxicology (individual variability: tenfold). […] Each drug was tested in triplicate. Plates were dosed with the drug for 72 h in each cycle (referred to as Day 0 through Day 3). […] At the end of day 3, the supernatant from each well was collected to determine ALB secretion, and the spheroids from each well were used for the cell viability assay. The Cmax information of the drugs is shown in Supplementary Table 3.
The culture supernatants were collected and stored at −80 °C until use. The supernatant was assayed with a Human Albumin ELISA Kit (PROTEINTECH, KE00076). Assays were performed according to the manufacturer’s instructions.

[3] = peak serum concentration used as dosing reference; source not given; cited from earlier work
HepG2 spheroids [4] = test: Cellular viability (ATP, CellTiter-Glo) in the DILI toxicity test on HepG2 spheroids; format: cell-based; conditions: 10*Cmax, end of Day 3 (72 h), individual replicates n = 3, unit from Fig. S4 legend
Procedure: as §1, §2
CellTiter-Glo (CTG, G9681, PROMEGA) reagent and culture medium were added to each well in a 1:1 ratio. The contents were mixed for 2 min to induce cell lysis. The plate was incubated at room temperature for 10 min to stabilize the luminescent signal. Recording of luminescence was carried out with BioTek Microplate Reader Synergy H1 (Vermont, USA).

O=P1(N(CCCl)CCCl)NCCCO1 (stereo not shown) [Cyclophosphamide]
Label section [1]: Adverse reactions | Severity class [1]: 5 | DILIrank [1]: vLess-DILI-Concern | ALB inhibition (HepG2 spheroids [2]): 90% and 54% and 78% | Cmax [3]: 69000 ng/mL | ATP inhibition (HepG2 spheroids [4]): 36% and 26% and 38%

N[C@@H]1[C@H]2CN(c3nc4c(cc3F)c(=O)c(C(=O)O)cn4-c3ccc(F)cc3F)C[C@@H]12 [Trovafloxacin]
Label section [1]: Withdrawn | ALB inhibition (HepG2 spheroids [2]): 28% and 76% and 63% | Cmax [3]: 2090 ng/mL | ATP inhibition (HepG2 spheroids [4]): 52% and 58%

C[C@]12CCC(=O)C=C1CC[C@@H]1[C@@H]2[C@@H](O)C[C@@]2(C)[C@H]1CC[C@]2(O)C(=O)CO [Hydrocortisone]
Label section [1]: No match | Severity class [1]: 0 | DILIrank [1]: vNo-DILI-Concern | ALB inhibition (HepG2 spheroids [2]): -33% and -30% and -26% | Cmax [3]: 305 ng/mL | ATP inhibition (HepG2 spheroids [4]): -17% and -20% and -30%
